Source: US11318113B2, “Compounds for the treatment of diseases linked to mitochondrial reactive oxygen species (ROS) production” (OP2 DRUGS, priority 2015, dated 2022)

Columns and labels:
[1] = system: isolated mitochondria from rat heart; assay: Mitochondrial respiration / oxidative phosphorylation (oxygraph); assay type: biochemical; conditions: AOL 5 to 80 μM
Protocol: Male Wistar rats (250-325 g; obtained from Janvier Labs, Le Genest-Saint-Isle, France) were killed by stunning and cervical dislocation, and the heart was quickly removed and washed in cold isolation medium containing 100 mM sucrose, 180 mM KCl, 50 mM Tris, 5 mM MgCl2, 10 mM EDTA, and 0.1% (w/v) deffated BSA (pH 7.2).
Isolation of heart mitochondria was performed in a cold chamber. Before homogenization, hearts (about 1.5 g) were minced with scissors and treated for 5 min in 5 mL of the same medium supplemented with protease (2 mg of bacterial proteinase type XXIV per mL of isolation buffer) with stirring. The tissue suspension was poured into a 50-ml glass Potter homogenizer, diluted with 20 mL of isolation buffer, then homogenized for 3 min using a motorized Teflon pestle. The homogenate was filtered through bolting cloth (Sefar Nitex) to remove debris, and centrifuged at 8,000 g for 10 minutes. The resulting pellet was rinsed with 5 mL of isolation buffer, resuspended in 25 mL of the same buffer, then subjected to low speed centrifugation (400 g) for 8 min. The resulting supernatant was centrifuged twice at 7,000 g for 15 min to yield a washed mitochondrial pellet that was gently resuspended in 150 μL of isolation buffer. Protein concentration was determined by the Bradford method (Sigma, kit # B6916) using BSA as standard. Mitochondria were kept on ice at a final concentration of 40-50 mg/mL for less than 5 h.
Oxygen consumption rates of heart mitochondria (0.1 mg/mL), incubated in the absence or presence of AOL at increasing doses (from 0 to 80 μM final concentration), were recorded polarographically under constant stirring at 25° C. using a high resolution oximeter (Oxygraph-2K, Oroboros Instruments, Austria). The respiration medium consisted in 140 mM sucrose, 100 mM KCl, 1 mM EGTA, 20 mM MgCl2, 10 mM KH2PO4, and 1 g/L (w/v) BSA essentially fatty acid free (pH 7.2).
This has been carried out by using the now classical oxygraph method. Mitochondria were first incubated with various AOL concentrations (5 to 80 μM) then respiratory substrate was added (substrate state, black curve), followed by a saturating ADP concentration to get the maximal oxidative phosphorylation rate (grey curve), and finally the addition of atractyloside (ATR) which inhibits the ADP/ATP translocator and gives the mitochondrial leak rate under non-phosphorylating conditions (FIG. 1A). The other panels of FIG. 1B-D presents the results obtained with different respiratory substrate combinations: glutamate+malate which feed electrons to complex I, succinate (+rotenone) for complex II and glutamate+malate+succinate to feed electrons to both complexes. […]

[2] = system: isolated perfused rat heart; assay: Global ischaemia/reperfusion of isolated perfused (Langendorff) rat heart; conditions: 10 μM AOL pretreatment, 30 min ischaemia
Protocol: The consequences of 30 minutes' global ischaemia followed by 120 minutes' reperfusion (FIG. 11) on contractility and tissue viability were studied on isolated perfused rat heart pretreated or not (control vehicle) with 10 μM AOL.
All procedures conformed to the UK Animals (Scientific Procedures) Act 1986 and the Guide for the Care and Use of Laboratory Animals published by the National Institutes of Health (NIH Publication No. 85-23. revised 1996). Male Wistar rats (250-300 g) were anesthetized by 3% isoflurane, heparinized and euthanized by a lethal IP injection of pentobarbital (130 mg/kg). Hearts (˜0.95 g of fresh weight) were rapidly harvested and placed into ice cold Krebs-Henseleit buffer containing (in mmol/L): NaCl 118, NaHCO3 25, KCl 4.8, KH2PO4 1.2, MgSO4 1.2, glucose 11 and CaCl2 1.8; gassed with 95% O2/5% CO2 at 37° C. (pH 7.4). Langendorff heart perfusions were performed (Garlid, K. D. et al., 2006. Am. J. Physiol. Heart Circ. Physiol. 291(1):H152-60) and contractility was assessed by continuous measurement of the rate pressure product (RPP) thanks to a balloon placed in the left ventricle and connected to a pressure transducer. Hearts were perfused in a constant flow mode (12 mL/min). […]

[3] = system: Sod2-KO mice; assay: Sod2-KO mice: lifespan, heart SDH activity, liver Oil Red O staining; assay type: in vivo, mouse
Text: Mice deficient in mitochondrial Mn-Superoxide Dismutase (Sod2-KO) on a CD1-background were used. This genetic alteration leads to an adverse phenotype and the death of animals at an average of 8 days old. Mitochondrial superoxide dismutase is a free radical scavenging enzyme which transforms superoxide (highly reactive) into hydrogen peroxide (less reactive), that could then cross mitochondrial membranes and be detoxified by matrix and cytosolic anti-oxidant systems. The aim of this study was to test if AOL could rescue the Sod2-KO phenotype through its activity on IQ superoxide production.
After birth, pups were genotyped (3 day-old) and the litter size was reduced to 6 pups per cage. Animals were then treated (AOL in Kolliphor®—5 mg/kg) or not (Kolliphor® only, noted KOL below). […] Two studies were conducted on two different generations from the same parents: lifespan; and succinate dehydrogenase activity in heart (SDH) and Oil Red O staining in liver. Animals were weighed and injected (intraperitoneal) daily.
Succinate dehydrogenase activity is a marker of superoxide in the mitochondrial matrix. Thus, a lack of SOD2 is associated with a decrease of SDH activity in heart. The aim of this experiment was to test whether or not AOL could restore SDH activity in KO mice.
However, the direct link between superoxide/hydrogen peroxide production and liver lipid accumulation is not established. The aim of the study was to test the potency of AOL to prevent liver lipid accumulation in Sod2-KO mice.
Animals were injected once a day from 3 days old until their death.
In this study, animals were treated daily (5 mg/kg) from day 3 to day 5. Heart and liver were harvested at day 6.

In the case of `COc1ccc(-c2cc(=S)ss2)cc1` [AOL, 5-(4-methoxyphenyl)-3H-1,2-dithiole-3-thione], the “mitochondrial oxidative phosphorylation and inner membrane integrity (leak rate, after ATR addition)” value [1] is reported as “absence of effect”, the “mitochondrial respiration under the different energetic states” value ([1]; glutamate and malate) is reported as “no statistical differences” and the “mitochondrial respiration under the different energetic states” value ([1]; glutamate, malate and succinate) is reported as “no statistical differences”. The “mitochondrial respiration under the different energetic states” value ([1]; succinate (+rotenone)) was “no statistical differences”, the “infarcted tissue rescued (TTC staining)” value ([2]; 120 min reperfusion) was “about 50%” and the “heart contractility (rate pressure product, RPP) versus control hearts” value ([2]; after 2 hours of reperfusion) was “about three times higher”. The “liver lipid droplets density (Oil Red O)” value ([3]; 5 mg/kg daily day 3 to day 5) was “decreased”, the “liver total lipid area (Oil Red O)” value ([3]; 5 mg/kg daily day 3 to day 5) was “able to restore” and the “SDH activity in heart” value ([3]; 5 mg/kg daily day 3 to day 5, not restored to WT levels) was “very slight increase”. For the same molecule, the “lifespan extension as compared to untreated mice” value ([3]; 5 mg/kg ip daily) was “up to 2 days”, the “median lifespan and maximal lifespan” value ([3]; 5 mg/kg ip daily) was “slightly improved” and the “lower body weight and body weight gain of KO mice” value ([3]; 5 mg/kg ip daily, day 8 to 12) was “tends to alleviate”.
